The source of these data is ChEMBL document CHEMBL4837241, “Identification of Betulinic Acid Derivatives as Potent TGR5 Agonists with Antidiabetic Effects via Humanized TGR5H88Y Mutant Mice” (J Med Chem, 2021).

In general, EC50 refers to the concentration giving half of the maximal effect. What is called Emax is the maximal effect, on the per cent scale that the assay sets.

Molecules are shown by their SMILES. The source made the active and inactive calls. No cut-off for these calls is given here.

The target of one assay is T1, G-protein coupled bile acid receptor 1 (Homo sapiens, UniProt Q8TDU6).
T1 sequence (Q8TDU6 whole entry): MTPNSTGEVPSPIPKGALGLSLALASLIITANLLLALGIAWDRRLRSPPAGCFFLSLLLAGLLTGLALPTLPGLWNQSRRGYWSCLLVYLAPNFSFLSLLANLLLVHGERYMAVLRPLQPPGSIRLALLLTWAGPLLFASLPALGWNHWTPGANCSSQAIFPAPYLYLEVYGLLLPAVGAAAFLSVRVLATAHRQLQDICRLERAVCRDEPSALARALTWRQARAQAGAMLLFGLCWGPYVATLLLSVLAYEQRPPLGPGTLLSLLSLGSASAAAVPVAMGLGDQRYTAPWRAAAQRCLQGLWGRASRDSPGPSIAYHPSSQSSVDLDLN
Description: Agonist activity at N-terminal HA-tagged human TGR5 expressed in HEK293 cells assessed as […] in intracellular cAMP levels incubated for 30 mins by Lance Ultra cAMP assay. Type of assay: functional, cell-based.
Conditions: not given
For orientation: Cyclic AMP is a second messenger, typically raised through Gs and lowered through Gi signalling.
For the compound `CC(C)[C@@H]1CC[C@]2(C(=O)NCC(=O)O)CC[C@]3(C)[C@H](CC[C@@H]4[C@@]5(C)CC[C@@H](OC(=O)NC6CC6)C(C)(C)[C@@H]5CC[C@]43C)[C@@H]12`, the EC50 worked out at 0.38 µM.

On to `CC(C)[C@@H]1CC[C@]2(C(=O)O)CC[C@]3(C)[C@H](CC[C@@H]4[C@@]5(C)CC[C@@H](OC(=O)NC6CCC6)C(C)(C)[C@@H]5CC[C@]43C)[C@@H]12`, for which the EC50 was 0.0267 µM.

For `CCNC(=O)O[C@@H]1CC[C@]2(C)[C@H]3CC[C@@H]4[C@H]5[C@H](C(C)C)CC[C@]5(C(=O)O)CC[C@@]4(C)[C@]3(C)CC[C@H]2C1(C)C`, the EC50 came to 0.013 µM.

In the case of `CC(C)[C@@H]1CC[C@]2(NC(=O)OCC(=O)O)CC[C@]3(C)[C@H](CC[C@@H]4[C@@]5(C)CC[C@@H](OC(=O)NC6CC6)C(C)(C)[C@@H]5CC[C@]43C)[C@@H]12`, the EC50 worked out at 0.271 µM.

Regarding `CC(C)[C@@H]1CC[C@]2(C(=O)O)CC[C@]3(C)[C@H](CC[C@@H]4[C@@]5(C)CC[C@@H](OC(=O)NC6CCCC6)C(C)(C)[C@@H]5CC[C@]43C)[C@@H]12`, the EC50 was determined as 0.0292 µM.

For the compound `CCNS(=O)(=O)O[C@@H]1CC[C@]2(C)[C@H]3CC[C@@H]4[C@H]5[C@H](C(C)C)CC[C@]5(C(=O)O)CC[C@@]4(C)[C@]3(C)CC[C@H]2C1(C)C`, the concentration for a half-maximal effect (EC50) worked out at 0.0686 µM.

Take `COc1ccc(NC(=O)O[C@@H]2CC[C@]3(C)[C@H]4CC[C@@H]5[C@H]6[C@H](C(C)C)CC[C@]6(C(=O)O)CC[C@@]5(C)[C@]4(C)CC[C@H]3C2(C)C)cc1`: the EC50 came out at 0.23 µM.

`CC(=O)[C@@H]1CC[C@]2(C(=O)O)CC[C@]3(C)[C@H](CC[C@@H]4[C@@]5(C)CC[C@@H](OC(=O)NC6CC6)C(C)(C)[C@@H]5CC[C@]43C)[C@@H]12`: the EC50 was 0.0131 µM.

Turning to `CC(C)[C@@H]1CC[C@]2(C(=O)O)CC[C@]3(C)[C@H](CC[C@@H]4[C@@]5(C)CC[C@@H](OC(N)=O)C(C)(C)[C@@H]5CC[C@]43C)[C@@H]12`, the half-maximal effective concentration (EC50) was 0.0307 µM.

In the case of `CC1(C)[C@H](OC(=O)NC2CC2)CC[C@]2(C)[C@H]3CC[C@@H]4[C@H]5[C@H]([C@@]6(C)CO6)CC[C@]5(C(=O)O)CC[C@@]4(C)[C@]3(C)CC[C@@H]12`, the EC50 is 0.0186 µM.

`CNC(=O)O[C@@H]1CC[C@]2(C)[C@H]3CC[C@@H]4[C@H]5[C@H](C(C)C)CC[C@]5(C(=O)O)CC[C@@]4(C)[C@]3(C)CC[C@H]2C1(C)C`: the half-maximal effective concentration (EC50) amounted to 0.0178 µM.

As to `COCC(=O)O[C@@H]1CC[C@]2(C)[C@H]3CC[C@@H]4[C@H]5[C@H](C(C)C)CC[C@]5(C(=O)O)CC[C@@]4(C)[C@]3(C)CC[C@H]2C1(C)C`, the half-maximal effective concentration (EC50) was found to be 0.0252 µM.

`CNS(=O)(=O)O[C@@H]1CC[C@]2(C)[C@H]3CC[C@@H]4[C@H]5[C@H](C(C)C)CC[C@]5(C(=O)O)CC[C@@]4(C)[C@]3(C)CC[C@H]2C1(C)C`: the EC50 was found to be 0.0454 µM.

Turning to `CC(C)[C@@H]1CC[C@]2(N)CC[C@]3(C)[C@H](CC[C@@H]4[C@@]5(C)CC[C@@H](OC(=O)NC6CC6)C(C)(C)[C@@H]5CC[C@]43C)[C@@H]12`, the EC50 was 0.867 µM.

Another assay has as its target T2, G-protein coupled bile acid receptor 1 (Homo sapiens) (UniProt Q8TDU6).
T2 sequence (whole entry): T1 sequence (Q8TDU6 whole entry)
Description: Agonist activity at N-terminal HA-tagged human TGR5 expressed in HEK293 cells assessed as […] in intracellular cAMP levels incubated for 30 mins by Lance Ultra cAMP assay relative to control. Type of assay: functional, cell-based. Conditions: filed as agonist.
On to `CC(C)[C@@H]1CC[C@]2(C(=O)NCC(=O)O)CC[C@]3(C)[C@H](CC[C@@H]4[C@@]5(C)CC[C@@H](OC(=O)NC6CC6)C(C)(C)[C@@H]5CC[C@]43C)[C@@H]12`, for which the Emax was determined as 96%.

As to `CC(C)[C@@H]1CC[C@]2(C(=O)O)CC[C@]3(C)[C@H](CC[C@@H]4[C@@]5(C)CC[C@@H](OC(=O)NC6CCC6)C(C)(C)[C@@H]5CC[C@]43C)[C@@H]12`, the maximal response (Emax) stood at 92%.

In the case of `CCNC(=O)O[C@@H]1CC[C@]2(C)[C@H]3CC[C@@H]4[C@H]5[C@H](C(C)C)CC[C@]5(C(=O)O)CC[C@@]4(C)[C@]3(C)CC[C@H]2C1(C)C`, the maximum response (Emax) came out at 100%.

`CC(C)[C@@H]1CC[C@]2(NC(=O)OCC(=O)O)CC[C@]3(C)[C@H](CC[C@@H]4[C@@]5(C)CC[C@@H](OC(=O)NC6CC6)C(C)(C)[C@@H]5CC[C@]43C)[C@@H]12`: the Emax turned out to be 98%.

With `CC(C)[C@@H]1CC[C@]2(C(=O)O)CC[C@]3(C)[C@H](CC[C@@H]4[C@@]5(C)CC[C@@H](OC(=O)NC6CCCC6)C(C)(C)[C@@H]5CC[C@]43C)[C@@H]12`, the Emax came out at 92%.

For the compound `CCNS(=O)(=O)O[C@@H]1CC[C@]2(C)[C@H]3CC[C@@H]4[C@H]5[C@H](C(C)C)CC[C@]5(C(=O)O)CC[C@@]4(C)[C@]3(C)CC[C@H]2C1(C)C`, the Emax amounted to 98%.

With `COc1ccc(NC(=O)O[C@@H]2CC[C@]3(C)[C@H]4CC[C@@H]5[C@H]6[C@H](C(C)C)CC[C@]6(C(=O)O)CC[C@@]5(C)[C@]4(C)CC[C@H]3C2(C)C)cc1`, the maximal response (Emax) came to 91%.

Consider `CC(=O)[C@@H]1CC[C@]2(C(=O)O)CC[C@]3(C)[C@H](CC[C@@H]4[C@@]5(C)CC[C@@H](OC(=O)NC6CC6)C(C)(C)[C@@H]5CC[C@]43C)[C@@H]12`, for which the maximal response (Emax) came to 100%.

As for `CC(C)[C@@H]1CC[C@]2(C(=O)O)CC[C@]3(C)[C@H](CC[C@@H]4[C@@]5(C)CC[C@@H](OC(N)=O)C(C)(C)[C@@H]5CC[C@]43C)[C@@H]12`, the Emax worked out at 100%.

Turning to `CC1(C)[C@H](OC(=O)NC2CC2)CC[C@]2(C)[C@H]3CC[C@@H]4[C@H]5[C@H]([C@@]6(C)CO6)CC[C@]5(C(=O)O)CC[C@@]4(C)[C@]3(C)CC[C@@H]12`, the Emax was found to be 99%.

As to `CNC(=O)O[C@@H]1CC[C@]2(C)[C@H]3CC[C@@H]4[C@H]5[C@H](C(C)C)CC[C@]5(C(=O)O)CC[C@@]4(C)[C@]3(C)CC[C@H]2C1(C)C`, the Emax stood at 98%.

For the compound `COCC(=O)O[C@@H]1CC[C@]2(C)[C@H]3CC[C@@H]4[C@H]5[C@H](C(C)C)CC[C@]5(C(=O)O)CC[C@@]4(C)[C@]3(C)CC[C@H]2C1(C)C`, the Emax was 100%.

In the case of `CNS(=O)(=O)O[C@@H]1CC[C@]2(C)[C@H]3CC[C@@H]4[C@H]5[C@H](C(C)C)CC[C@]5(C(=O)O)CC[C@@]4(C)[C@]3(C)CC[C@H]2C1(C)C`, the maximal effect (Emax) came to 99%.

Consider `CC(C)[C@@H]1CC[C@]2(N)CC[C@]3(C)[C@H](CC[C@@H]4[C@@]5(C)CC[C@@H](OC(=O)NC6CC6)C(C)(C)[C@@H]5CC[C@]43C)[C@@H]12`, for which the Emax turned out to be 97%.

A further assay addresses T3, Bile acid receptor (Homo sapiens) (UniProt Q96RI1).
T3 sequence (whole entry): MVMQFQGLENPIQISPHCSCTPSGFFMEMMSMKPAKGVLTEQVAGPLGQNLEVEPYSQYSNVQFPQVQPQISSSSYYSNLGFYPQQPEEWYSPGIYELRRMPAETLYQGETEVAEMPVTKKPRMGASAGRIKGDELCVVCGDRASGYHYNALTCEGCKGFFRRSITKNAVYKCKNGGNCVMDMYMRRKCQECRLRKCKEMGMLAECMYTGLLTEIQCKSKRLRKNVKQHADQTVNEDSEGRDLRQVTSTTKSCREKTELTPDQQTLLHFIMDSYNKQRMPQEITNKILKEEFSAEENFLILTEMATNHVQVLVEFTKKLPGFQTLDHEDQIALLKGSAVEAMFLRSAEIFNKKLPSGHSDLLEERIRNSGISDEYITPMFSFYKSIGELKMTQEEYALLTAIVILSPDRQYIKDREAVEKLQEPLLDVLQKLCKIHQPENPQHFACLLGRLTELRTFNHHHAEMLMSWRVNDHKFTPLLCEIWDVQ
Description: Agonist activity at human FXR (247 to 467 residues) expressed in HEK293 cells at 100 uM incubated for 8 hrs by luciferase assay.
Conditions: not given
It counts as cell-based.
For `CC(C)[C@@H]1CC[C@]2(C(=O)NCC(=O)O)CC[C@]3(C)[C@H](CC[C@@H]4[C@@]5(C)CC[C@@H](OC(=O)NC6CC6)C(C)(C)[C@@H]5CC[C@]43C)[C@@H]12`, the result was inactive.

`CC(C)[C@@H]1CC[C@]2(C(=O)O)CC[C@]3(C)[C@H](CC[C@@H]4[C@@]5(C)CC[C@@H](OC(=O)NC6CCC6)C(C)(C)[C@@H]5CC[C@]43C)[C@@H]12`: the outcome was inactive.

Consider `CCNC(=O)O[C@@H]1CC[C@]2(C)[C@H]3CC[C@@H]4[C@H]5[C@H](C(C)C)CC[C@]5(C(=O)O)CC[C@@]4(C)[C@]3(C)CC[C@H]2C1(C)C`, for which the outcome was inactive.

In the case of `CC(C)[C@@H]1CC[C@]2(NC(=O)OCC(=O)O)CC[C@]3(C)[C@H](CC[C@@H]4[C@@]5(C)CC[C@@H](OC(=O)NC6CC6)C(C)(C)[C@@H]5CC[C@]43C)[C@@H]12`, the result was inactive.

For the compound `CC(C)[C@@H]1CC[C@]2(C(=O)O)CC[C@]3(C)[C@H](CC[C@@H]4[C@@]5(C)CC[C@@H](OC(=O)NC6CCCC6)C(C)(C)[C@@H]5CC[C@]43C)[C@@H]12`, the result was inactive.

For `CCNS(=O)(=O)O[C@@H]1CC[C@]2(C)[C@H]3CC[C@@H]4[C@H]5[C@H](C(C)C)CC[C@]5(C(=O)O)CC[C@@]4(C)[C@]3(C)CC[C@H]2C1(C)C`, the outcome was inactive.

Take `COc1ccc(NC(=O)O[C@@H]2CC[C@]3(C)[C@H]4CC[C@@H]5[C@H]6[C@H](C(C)C)CC[C@]6(C(=O)O)CC[C@@]5(C)[C@]4(C)CC[C@H]3C2(C)C)cc1`: the result was inactive.

Consider `CC(=O)[C@@H]1CC[C@]2(C(=O)O)CC[C@]3(C)[C@H](CC[C@@H]4[C@@]5(C)CC[C@@H](OC(=O)NC6CC6)C(C)(C)[C@@H]5CC[C@]43C)[C@@H]12`, for which the outcome was inactive.

`CC(C)[C@@H]1CC[C@]2(C(=O)O)CC[C@]3(C)[C@H](CC[C@@H]4[C@@]5(C)CC[C@@H](OC(N)=O)C(C)(C)[C@@H]5CC[C@]43C)[C@@H]12`: the outcome was inactive.

On to `CC1(C)[C@H](OC(=O)NC2CC2)CC[C@]2(C)[C@H]3CC[C@@H]4[C@H]5[C@H]([C@@]6(C)CO6)CC[C@]5(C(=O)O)CC[C@@]4(C)[C@]3(C)CC[C@@H]12`, for which the result was inactive.

For the compound `CNC(=O)O[C@@H]1CC[C@]2(C)[C@H]3CC[C@@H]4[C@H]5[C@H](C(C)C)CC[C@]5(C(=O)O)CC[C@@]4(C)[C@]3(C)CC[C@H]2C1(C)C`, the result was inactive.

Consider `COCC(=O)O[C@@H]1CC[C@]2(C)[C@H]3CC[C@@H]4[C@H]5[C@H](C(C)C)CC[C@]5(C(=O)O)CC[C@@]4(C)[C@]3(C)CC[C@H]2C1(C)C`, for which the result was inactive.

On to `CNS(=O)(=O)O[C@@H]1CC[C@]2(C)[C@H]3CC[C@@H]4[C@H]5[C@H](C(C)C)CC[C@]5(C(=O)O)CC[C@@]4(C)[C@]3(C)CC[C@H]2C1(C)C`, for which the result was inactive.

With `CC(C)[C@@H]1CC[C@]2(N)CC[C@]3(C)[C@H](CC[C@@H]4[C@@]5(C)CC[C@@H](OC(=O)NC6CC6)C(C)(C)[C@@H]5CC[C@]43C)[C@@H]12`, the result was inactive.
